Like-named read-outs stand apart in the source and are kept apart here.
What was measured:
GAP-43 expression = assay: GAP-43 immunohistochemistry of optic nerve after optic nerve crush; format: in vivo, Sprague-Dawley rats; details: 14 days after optic nerve crush, systemic tacrolimus treatment
[1] = Tacrolimus concentration in infra orbital nerves, muscle and PEUU wraps (Example 3); format: in vivo, Lewis rats; details: Lewis, rat, daily intraperitoneal injections 1 mg/kg for 14 days
Experimental: Animals and Surgeries. All animals received care in compliance with the Institutional Animal Care and Use Committee and protocol approval from the University of Pittsburgh and followed guidelines from the Guide for the Care and Use of Laboratory Animals published by the U.S. National Institutes of Health. 10 Lewis rats (RT1) per group (treatment group, non-treatment group), aged 8-10 weeks, were anesthetized with 50 mg/kg intraperitoneal pentobarbital sodium and supplemented as necessary with 10 mg/kg injections. Sterile technique were utilized for all surgeries and a heating pad was used to maintain core animal temperature at 37° C.
The surgical procedure is described in depth in Xiao et al., 2016 and is briefly defined here. Proximal to the mystacial pad, an incision was made on the left hemiface distal to where the infraorbital nerve exits from the infraorbital foramen. Tissue was discretely dissected in order to expose the infraorbital branch of the trigeminal nerve and was transected using microscissors. […]
Quantification of Tacrolimus concentration in infra orbital nerves, muscle, and PEUU wraps. […] Drug concentration was measured by L-CMS/MS and the results were expressed as ng/g of tissue or wrap weight.
Quantification of Tacrolimus by LC-Tandem Mass Spectrometry (LC-MS/MS). […]

[2] = reference range; cited from earlier work
[3] = tested on: retinal ganglion cells (RGCs); assay: RGC neurite growth and branching analysis; format: cell-based, rat
Experimental: Retinal ganglion cell isolation. RGCs were isolated from female and male postnatal day three (P3) Sprague-Dawley rat pups, purified by immunopanning, and cultured in NB-SATO media as previously described (Barres, Silverstein et al. 1988). The RGCs were seeded (5×10^3/cm^2) on cell culture plates coated with poly-D-lysine (70 kDa, 10 μg/mL; Sigma-Aldrich Corp., St. Louis, Mo., USA) and laminin (2 μg/mL, Sigma-Aldrich Corp.), and maintained at 37° C. in 10% CO2 for 3 days.
RGC neurite growth analysis. Neurite growth was analyzed as previously described (Steketee, Oboudiyat et al. 2014). Briefly, RGCs were fixed after 3 DIV with 4% paraformaldehyde (Alfa Aesar; 30525-89-4) in PBS, washed with PBS (2×), and permeabilized with 0.2% triton X-100 in PBS for 15 minutes. After blocking for 1 hour (1% BSA, Fisher Scientific), the RGCs were incubated in anti-β III tubulin (1:300, TUJ-1, Millipore) at 4° C. overnight, washed in PBS (3×), incubated with a FITC-rabbit anti-chicken IgY H+L (1:150, #31501, Thermo Scientific) for 3 hours, washed with PBS (3×), counterstained with the nuclear marker DAPI (1:3000, Invitrogen) for 20 minutes at room temperature, and washed in PBS (2×, 5 min. each). The RGCs were observed as above using epifluorescent microscopy and analyzed using the ImageJ plugin, NeuronJ (National Institutes of Health, Bethesda, Md., USA). Neurites were defined as any projection longer than twice the cell body, and branches were quantified as the number of secondary neurites extending from a primary neurite that originated at the cell body. At least 30 neurons were analyzed blindly as previously described for three independent experimental repeats, totaling at least 90 neurons per condition.

concentration at 14 days ([1]; infra orbital nerves (IONs), read-out: tacrolimus concentration in IONs): ~196 ng/g | concentration at 14 days ([1]; muscle, read-out: tacrolimus concentration in muscle): ~172 ng/g
Structure (SMILES): C=CC[C@@H]1/C=C(\C)C[C@H](C)C[C@H](OC)[C@H]2O[C@@](O)(C(=O)C(=O)N3CCCC[C@H]3C(=O)O[C@H](/C(C)=C/[C@@H]3CC[C@@H](O)[C@H](OC)C3)[C@H](C)[C@@H](O)CC1=O)[C@H](C)C[C@@H]2OC [tacrolimus]
GAP-43 expression in optic nerve (GAP-43 expression): no significant GAP-43 expression | typical therapeutic trough levels (blood) [2]: 10 to 20 ng/g | share of the increase in total neurite growth manifested in axon growth [3]: 90% | neurite growth compared to all other conditions, including media control ([3]; 50 μM and 100 μM tacrolimus): significantly decreased | longest neurite (axon) growth ([3]; 3 DIV): increased | neurite branching ([3]; 3 DIV): without a change | concentration at which total neurite growth was optimal ([3]; 3 DIV, axons and dendrites): 5 µM | axonal outgrowth ([3]; assays with RGCs and microglia): did not show an increase | total and longest neurite growth ([3]; assays with RGCs only): significantly increased

From patent US11529318B2, “Devices and methods for local delivery of tacrolimus” (UNIVERSITY OF PITTSBURGH—OF THE COMMONWEALTH SYSTEM OF …, priority 2017, dated 2022)
